Laboratory results as given in patent US12660821B2, “Herbicide compositions with epyrifenacil and 2,4-D triethanolamine salt with improved properties” (MONSANTO TECHNOLOGY LLC, priority 2020, dated 2026).

Experiment: Partition coefficient of compound (A) between organic solvent and water (procedure G1, HPLC)
Type: physicochemical
Conditions: approx. 25° C.
Method: G1: General Experimental Procedure to Determine the Partition Coefficient of Compound (A) in Solvents
The experimental procedure for the respective solvent is as follows: (1) A solution of 10 g of compound (A) is prepared in 90 g of the respective solvent; (2) An aliquot of 10 g of the solution obtained in step (1) is added to 90 g of water in a glass bottle, which is shaken on a mechanical shaker for 4 hours at ambient temperature (approximately 25° C.); (3) The contents of the glass bottle are permitted to phase separate for 4 days at ambient temperature (approximately 25° C.); and (4) Subsamples of the resulting oil and water phases are taken and analyzed by HPLC to determine the concentrations of compound (A) in oil (Co) and water phases (Cw) respectively. The subsamples are typically centrifuged before HPLC analysis to remove traces of organic solvent from the water phase.
The partition coefficient, analogous to the octanol-water partition coefficient, P, is calculated as Co/Cw. The partition coefficient is conveniently expressed as a logarithm […]=log Co/Cw=P.
The ratio of determined concentrations of compound (A) in the solvent phase and the water phase typically is very large. […]

Question: With `CCOC(=O)COc1ncccc1Oc1cc(-n2c(=O)cc(C(F)(F)F)n(C)c2=O)c(F)cc1Cl` [compound (A), ethyl [3-[2-chloro-4-fluoro-5-(1-methyl-6-trifluoromethyl-2,4-dioxo-1,2,3,4-tetrahydropyrimidin-3-yl)phenoxy]-2-pyridyloxy]acetate] as the molecule, how does the “compound (A) in the water phase” value (Aromatic 200 ND as organic solvent) read?
Answer: The value was “undetectable”.

Question: What about the “compound (A) in the water phase” value (acetophenone as organic solvent) of the same molecule?
Answer: The value was “undetectable”.
